Earlier results on 2 molecules are cited in publication PMC4629263 (Acta Pharmaceutica Sinica. B, 2015).

As usually defined, the LD50 is the dose expected to kill half of the subjects tested. The pKa is the negative logarithm of the acid dissociation constant.

For series [1] the following is noted: room temperature.
For series [2] the following is noted: mice.

Consider `COc1cc(N)c2c(c1O)-c1c(OC)c(OC)cc3c1[C@H](C2)N(C)CC3` [8-amino-isocorydine], for which the “Stability in aqueous solution” value in series [1] was “not stable”. Consider `COc1ccc2c(c1O)-c1c(OC)c(OC)cc3c1[C@H](C2)N(C)CC3` [ICD, Isocorydine], for which the pKa is 7.16. The LD50 in series [2] is reported as 32.2 mg/kg.
